Consider 30 compounds from patent US8440674B2, “Substituted pyrimidine compounds as RAF inhibitors and methods of use” (Amgen Inc., priority 2005, dated 2013).

The subject of assay [1] is A375 cells, a human melanoma cell line having the V600E mutant Braf. The assay is described as follows: B-Raf cell-based assay (ratio of phospho-ERK1/2 to total ERK1/2). The settings on record: A-375, 1 h, P-ERK/total ERK, 60 minute incubation, read-out: IC50 for the inhibition of B-raf as measured by the cell-based assay. The method, then:
A cell-based assay was optimized to assay the ability of compounds to inhibit Braf activity in a whole cell context. […] The cell-based assay quantifies the ratio of phospho-ERK1/2 to total ERK1/2 and can thereby assay the cellular inhibition of Braf kinase activity.
A375 cells are plated into 96 well plates and grown to confluence. The cells are then changed into starve media (DMEM/0.1% BSA) for 60 minutes. Compounds in DMSO dose curves are then diluted in starve media and added to cells. […] After a 60 minute incubation the cells are fixed for 20 minutes at room temperature in 4% formaldehyde with 0.1%Triton X-100, protease and phosphatase inhibitors in PBS. The cells are washed four times in PBS then blocked for 60 minutes using a one to one mix of Odyssey blocking buffer (Li-Cor Biosciences, Inc) and PBS. Primary antibodies (rabbit anti-phospho p42/p44 MAPK (P-ERK1/2) from Cell Signaling Technology and mouse anti-ERK2 from Santa Cruz Biotechnology) are diluted in blocking buffer, added to the cells and incubated overnight at 4° C. The cells are then washed four times in PBS/0.1% Tween-20. Secondary antibodies (anti-mouse IRDye 800CW from Rockland, Inc and anti-rabbit AlexaFlour680 from Molecular Probes) are diluted in blocking buffer/0.5% Tween and incubated on cells for 60 minutes. After 4 washes in PBS/0.1% Tween-20 the microplate is scanned on an Odyssey Infrared Imager (Li-Cor Bioscience) which can read the signal given by the two secondary antibodies on their respective channels. The ratio of P-ERK/total ERK is determined and IC50s generated using Excel-XLfit software.

The next assay deals with recombinant HuBraf V600E (Homo sapiens, UniProt P15056, V600E). Description: B-raf Homogenous Time Resolved Fluorescent (HTRF) kinase assay. It counts as biochemical. The settings on record: substrate MEK1, 10 uM ATP; threshold lists; read-out: IC50 for the inhibition of B-raf as measured by the HTRF assay. The method, then: A Homogeneous Time Resolved Fluorescence (HTRF) kinase assay was established to assay the ability of compounds to inhibit human mutant Braf kinase activity on the substrate MEK1. […] The final concentration of the kinase reaction buffer is 50 mM Tris-HCL pH 7.5, 10 mM MgCl2, 0.5% glucose, 0.5 mM DTT, 0.01% BSA.
The detection reaction proceeds for one hour and is read on a RubyStar (BMG Labtech) counter. IC50s for the test compounds are generated using Excel-XLfit software.

The structures appear in SMILES notation. Like-named read-outs stand apart in the source and are kept apart here.

Chain of recombinant HuBraf V600E (P15056 whole entry V600E): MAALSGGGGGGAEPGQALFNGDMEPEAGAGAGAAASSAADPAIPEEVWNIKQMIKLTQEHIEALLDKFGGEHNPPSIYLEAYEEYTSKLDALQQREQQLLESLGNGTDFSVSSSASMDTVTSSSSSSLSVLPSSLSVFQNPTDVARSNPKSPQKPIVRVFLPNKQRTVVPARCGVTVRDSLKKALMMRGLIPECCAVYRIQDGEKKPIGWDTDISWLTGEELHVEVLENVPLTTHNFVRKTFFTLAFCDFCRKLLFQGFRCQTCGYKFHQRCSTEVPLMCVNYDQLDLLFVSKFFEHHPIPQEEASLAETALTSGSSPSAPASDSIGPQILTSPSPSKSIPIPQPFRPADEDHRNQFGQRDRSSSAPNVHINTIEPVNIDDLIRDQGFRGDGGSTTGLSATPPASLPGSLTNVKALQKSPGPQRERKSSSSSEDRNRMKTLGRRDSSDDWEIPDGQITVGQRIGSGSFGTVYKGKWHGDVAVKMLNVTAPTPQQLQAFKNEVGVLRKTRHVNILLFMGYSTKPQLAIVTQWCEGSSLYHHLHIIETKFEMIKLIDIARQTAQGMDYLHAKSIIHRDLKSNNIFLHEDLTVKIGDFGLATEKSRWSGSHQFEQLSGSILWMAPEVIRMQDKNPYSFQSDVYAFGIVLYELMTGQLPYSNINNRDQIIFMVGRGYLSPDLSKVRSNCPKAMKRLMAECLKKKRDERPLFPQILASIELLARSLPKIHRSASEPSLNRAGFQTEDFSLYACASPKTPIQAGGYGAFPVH

For `Cc1ccc2c(Nc3cccc(C(F)(F)F)c3)nccc2c1Nc1ncccc1-c1ccncn1` [Example 7, 6-methyl-N^5-(3-(4-pyrimidinyl)-2-pyridinyl)-N^1-(3-(trifluoromethyl)phenyl)-1,5-isoquinolinediamine], the 50% inhibitory concentration (IC50) (in general, the concentration that gives 50% inhibition) was at most 0.5 µM in assay [1] (threshold list) and at most 0.25 µM on recombinant HuBraf V600E.
Regarding `COc1cc(Nc2nccc3c(Nc4ncccc4-c4ccncn4)cccc23)cc(C(F)(F)F)c1` [Example 8, N^1-(3-(methyloxy)-5-(trifluoromethyl)phenyl)-N^5-(3-(4-pyrimidinyl)-2-pyridinyl)-1,5-isoquinolinediamine], the IC50 in assay [1] (threshold list) was at most 0.5 µM; at recombinant HuBraf V600E, at most 0.25 µM.
For `Cc1ccc2c(Nc3ccccc3)nccc2c1Nc1ncccc1-c1ccncn1` [Example 9, 6-methyl-N^1-phenyl-N^5-(3-(4-pyrimidinyl)-2-pyridinyl)-1,5-isoquinolinediamine], the 50% inhibitory concentration (IC50) in assay [1] (threshold list) was at most 0.5 µM; on recombinant HuBraf V600E it was at most 0.25 µM.
As for `Cc1ccc2c(Nc3cccc(C(C)(C)C)c3)nccc2c1Nc1ncccc1-c1ccncn1` [Example 10, N^1-(3-(1,1-dimethylethyl)phenyl)-6-methyl-N^5-(3-(4-pyrimidinyl)-2-pyridinyl)-1,5-isoquinolinediamine], the IC50 in assay [1] (threshold list) is at most 0.5 µM; on recombinant HuBraf V600E, at most 0.25 µM.
In the case of `Cc1ccc2c(Nc3cccc(N(C)C)c3)nccc2c1Nc1ncccc1-c1ccncn1` [Example 11, N^1-(3-(dimethylamino)phenyl)-6-methyl-N^5-(3-(4-pyrimidinyl)-2-pyridinyl)-1,5-isoquinolinediamine], the IC50 in assay [1] (threshold list) was at most 0.5 µM; on recombinant HuBraf V600E, at most 0.25 µM.
For the compound `Cc1ccc2c(Nc3cccc(C(C)C)c3)nccc2c1Nc1ncccc1-c1ccncn1` [Example 12, 6-methyl-N^1-(3-(1-methylethyl)phenyl)-N^5-(3-(4-pyrimidinyl)-2-pyridinyl)-1,5-isoquinolinediamine], the figures for the 50% inhibitory concentration (IC50) (in assay [1] (threshold list); on recombinant HuBraf V600E) were at most 0.5 µM and at most 0.25 µM, respectively.
Consider `Cc1ccc2c(Nc3cccc(OC(C)C)c3)nccc2c1Nc1ncccc1-c1ccncn1` [Example 13, 6-methyl-N^1-(3-((1-methylethyl)oxy)phenyl)-N^5-(3-(4-pyrimidinyl)-2-pyridinyl)-1,5-isoquinolinediamine], for which the half-maximal inhibitory concentration (IC50) is at most 0.5 µM in assay [1] (threshold list) and at most 0.25 µM on recombinant HuBraf V600E.
With `Cc1ccc2c(Nc3cccc(Cl)c3)nccc2c1Nc1ncccc1-c1ccncn1` [Example 14, N^1-(3-chlorophenyl)-6-methyl-N^5-(3-(4-pyrimidinyl)-2-pyridinyl)-1,5-isoquinolinediamine], the IC50 was at most 0.5 µM in assay [1] (threshold list) and at most 0.25 µM on recombinant HuBraf V600E.
On the same counts, the results for `Cc1ccc2c(Nc3cc(C(C)(C)C)nn3C)nccc2c1Nc1ncccc1-c1ccncn1` [Example 15, N^1-(3-(1,1-dimethylethyl)-1-methyl-1H-pyrazol-5-yl)-6-methyl-N^5-(3-(4-pyrimidinyl)-2-pyridinyl)-1,5-isoquinolinediamine] are at most 0.5 µM and at most 0.25 µM.
Turning to `Cc1ccc2c(Nc3ccc(C(C)(C)C)cc3)nccc2c1Nc1ncccc1-c1ccncn1` [Example 16, N^1-(4-(1,1-dimethylethyl)phenyl)-6-methyl-N^5-(3-(4-pyrimidinyl)-2-pyridinyl)-1,5-isoquinolinediamine], the concentration for half-maximal inhibition (IC50) was at most 0.5 µM in assay [1] (threshold list) and at most 0.25 µM at recombinant HuBraf V600E.
Consider `CNc1nccc2c(Nc3ncccc3-c3ccncn3)c(C)ccc12` [Example 17, N^1-6-dimethyl-N^5-(3-(4-pyrimidinyl)-2-pyridinyl)-1,5-isoquinolinediamine], for which the IC50 in assay [1] (threshold list) was at most 0.5 µM; at recombinant HuBraf V600E it was at most 0.25 µM.
On the same counts, the results for `Cc1ccc2c(Nc3cccc(OC(F)(F)F)c3)nccc2c1Nc1ncccc1-c1ccncn1` [Example 18, 6-methyl-N^5-(3-(4-pyrimidinyl)-2-pyridinyl)-N^1-(3-((trifluoromethyl)oxy)phenyl)-1,5-isoquinolinediamine] are at most 0.5 µM and at most 0.25 µM.
Turning to `COc1ccc(Nc2nccc3c(Nc4ncccc4-c4ccncn4)c(C)ccc23)cc1C(F)(F)F` [Example 19, 6-methyl-N^1-(4-(methyloxy)-3-(trifluoromethyl)phenyl)-N^5-(3-(4-pyrimidinyl)-2-pyridinyl)-1,5-isoquinolinediamine], the concentration for half-maximal inhibition (IC50) in assay [1] (threshold list) was at most 0.5 µM; on recombinant HuBraf V600E it was at most 0.25 µM.
Consider `CNc1ncc2cc(-c3c(C)ccc4c(Nc5cccc(C(F)(F)F)c5)nccc34)ccc2n1` [Example 24, N-methyl-6-(6-methyl-1-((3-(trifluoromethyl)phenyl)amino)-5-isoquinolinyl)-2-quinazolinamine], for which the IC50 in assay [1] (threshold list) is at most 0.5 µM; on recombinant HuBraf V600E, at most 0.25 µM.
In the same order, the values of `CNc1ncc2cc(-c3c(C)ccc4c(Nc5cccc(OC(C)C)c5)nccc34)ccc2n1` [Example 25, N-methyl-6-(6-methyl-1-((3-((1-methylethyl)oxy)phenyl)amino)-5-isoquinolinyl)-2-quinazolinamine] are at most 0.5 µM and at most 0.25 µM.
Turning to `CNc1cc(-c2cccnc2Nc2c(C)ccc3c(Nc4cc(C(C)(C)C)nn4C)nccc23)ncn1` [Example 69, N^1-(3-tert-butyl-1-methyl-1H-pyrazol-5-yl)-6-methyl-N^5-(3-(6-(methylamino)pyrimidin-4-yl)pyridin-2-yl)isoquinoline-1,5-diamine], in assay [1] (threshold lists), the half-maximal inhibitory concentration (IC50) was at most 5 µM.
Turning to `CNc1ncc2cc(-c3c(C)ccc4c(Nc5cccc(OC(F)(F)F)c5)nc(C)nc34)ccc2n1` [Example 86, 6-(2,7-dimethyl-4-(3-(trifluoromethoxy)phenylamino)quinazolin-8-yl)-N-methylquinazolin-2-amine], the half-maximal inhibitory concentration (IC50) in assay [1] (threshold lists) was at most 5 µM.
With `CNc1ncc2cc(-c3c(C)ccc4c(Nc5ccc(C#N)cc5)nccc34)ccc2n1` [Example 103], the results for the IC50 in assay [1] (threshold list) and in assay [1] (threshold lists) were at most 0.5 µM and at most 1 µM, respectively.
In the case of `CNc1ncc2cc(-c3c(C)ccc4c(Nc5cccnc5)nn(C)c34)ccc2n1` [Example 163], the IC50 in assay [1] (threshold list) is at most 0.5 µM; in assay [1] (threshold lists), at most 1 µM.
Consider `CNc1ncc2cc(-c3c(C)ccc4c(Nc5cccc(C#N)c5)nn(C)c34)ccc2n1` [Example 196], for which the IC50 in assay [1] (threshold list) was at most 0.5 µM.
`Cc1ccc(C(F)(F)F)cc1Nc1nccc2c(Nc3ncccc3-c3ccncn3)c(C)ccc12` [Example 344, 6-methyl-N1-(2-methyl-5-(trifluoromethyl)phenyl)-N5-(3-(pyrimidin-4-yl)pyridin-2-yl)isoquinoline-1,5-diamine]: on recombinant HuBraf V600E, the IC50 was at most 0.25 µM.
In the case of `CNc1cc(-c2cccnc2F)ncn1` [Example 345, 6-(2-fluoropyridin-3-yl)-N-methylpyrimidin-4-amine], the IC50 is at most 0.5 µM in assay [1] (threshold list) and at most 1 µM in assay [1] (threshold lists).
Consider `CNc1cc(-c2cccnc2Nc2c(C)ccc3c(Nc4cc(C(F)(F)F)ccc4C)nccc23)ncn1` [Example 349], for which, in assay [1] (threshold lists), the half-maximal inhibitory concentration (IC50) is at most 5 µM.
In the case of `CNc1ncc2cc(-c3c(C)ccc4c(Nc5cccc(C(F)(F)F)c5)nccc34)c(=O)n(C)c2n1` [Example 354, 8-methyl-6-(6-methyl-1-(3-(trifluoromethyl)phenylamino)isoquinolin-5-yl)-2-(methylamino)pyrido[2,3-d]pyrimidin-7(8H)-one], the IC50 in assay [1] (threshold lists) is at most 5 µM.
Regarding `CNc1ncc2cc(-c3cccc4c(Nc5cccc(C(F)(F)F)c5)nccc34)c(=O)n(C)c2n1` [Example 360], the half-inhibitory concentration (IC50) at recombinant HuBraf V600E is at most 0.25 µM.
`Cc1ccc2c(Nc3cccc(C(F)(F)F)c3)nccc2c1-c1ccc2nc(N)ncc2c1` [Example 361, 6-(6-methyl-1-(3-(trifluoromethyl)phenylamino)isoquinolin-5-yl)quinazolin-2-amine]: on recombinant HuBraf V600E, the IC50 was at most 0.25 µM.
On to `CNc1ncc2cc(-c3c(C)ccc4c(Nc5cncc(OC(C)C)c5)nccc34)ccc2n1` [Example 378, 6-(1-(5-isopropoxypyridin-3-ylamino)-6-methylisoquinolin-5-yl)-N-methylquinazolin-2-amine], for which the IC50 on recombinant HuBraf V600E is at most 1 µM.
In the case of `CNc1nccc(-c2cccnc2Oc2c(C)ccc3c(Nc4cccc(OC(F)(F)F)c4)nccc23)n1` [Example 413, 6-methyl-5-(3-(2-(methylamino)pyrimidin-4-yl)pyridin-2-yloxy)-N-(3-(trifluoromethoxy)phenyl)isoquinolin-1-amine], in assay [1] (threshold lists), the IC50 was at most 5 µM.
On the same count and under the same terms, as for `CNc1ncc2cc(-c3c(C)ccc4c(Nc5cccc(C(C)(C)O)c5)nncc34)ccc2n1` [Example 433, 2-(3-(6-methyl-5-(2-(methylamino)quinazolin-6-yl)phthalazin-1-ylamino)phenyl)propan-2-ol], the figure is at most 5 µM.
Regarding `CNc1ncc2cc(-c3c(C)ccc4c(Nc5ccc6c(c5)NC(=O)CC6(C)C)nnc(C)c34)ccc2n1` [Example 438], in assay [1] (threshold list), the IC50 was at most 0.5 µM.
